# Assay results taken from US20250320252A1 (The Scripps Research Institute, priority 2021, published 2025).
# Like-named read-outs stand apart in the source and are kept apart here. Numbered stars: 1 amine (or outer) side, 2 acyl side, 3 side chain; on linkers, the order of the positions; unused ones are H or OH. Bridge positions count the residues as written; N and C are the ends. Square brackets hold non-standard residues; d marks the D form. Peptide text beside a SMILES is read from it. X2 = O=C(O)CCCCCCCCCCCCCCCCCCC(=O)N[C@@H](CCCCNC(=O)CCOCCOCCNC(=O)CCOCCOCCNC(=O)CCC(=O)N(CCNC(=O)C[*:1])CCNC(=O)C[*:2])C(=O)O; Aib = CC(C)(N)C(=O)O
# How the values were obtained:
# human GIPR = target: T1, human GIPR (Homo sapiens, UniProt P48546); assay: In vitro receptor activation reporter assay (CRE-Luc), HEK293-GIPR-CRE; format: cell-based; details: read-out: EC50 [nM] GIPR
# T1 construct: expressed in transfected cells
# T1 sequence (P48546 22-466): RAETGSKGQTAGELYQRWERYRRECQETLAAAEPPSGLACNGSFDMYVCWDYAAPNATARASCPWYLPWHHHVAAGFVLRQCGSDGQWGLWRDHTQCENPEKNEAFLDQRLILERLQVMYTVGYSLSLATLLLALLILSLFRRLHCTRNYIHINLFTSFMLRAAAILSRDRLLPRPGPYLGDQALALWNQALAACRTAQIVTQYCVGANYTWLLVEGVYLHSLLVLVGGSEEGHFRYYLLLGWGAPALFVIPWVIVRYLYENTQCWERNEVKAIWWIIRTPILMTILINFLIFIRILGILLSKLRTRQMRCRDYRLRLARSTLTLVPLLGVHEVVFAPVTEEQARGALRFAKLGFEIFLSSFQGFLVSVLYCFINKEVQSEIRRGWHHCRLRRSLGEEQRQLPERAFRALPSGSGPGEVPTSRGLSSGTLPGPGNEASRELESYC
# From the text: HEK293 cells were infected with lentivirus encoding firefly luciferase gene under the control of cAMP responsive element (CRE) promoter (Qiagen, The Netherlands) and then were selected using 1 g mL^−1 puromycin (Life Technologies, Carlsbad) for 1 week. The surviving cells (referred to as CRE-HEK293) were expanded and then transfected with a G418 selective mammalian expression plasmid encoding human GLP-1R or GIPR. In brief, GLP-1R or GIPR plasmid was transfected into CRE-HEK293 cells using Lipofectamine 2000 and selected with 400 g mL^−1 Geneticin (Life Technologies, Carlsbad, CA). Single colony stable cell line overexpressing CRE-luciferase and GLP-1R or GIPR (HEK293-GLP-1R-CRE or HEK293-GIPR-CRE) was then established for in vitro activity assay.
# (§1) The EC50 of each peptide was determined using GraphPad Prism 6 software (GraphPad, San Diego, CA).
# human GLP-1R = target: T2, human GLP-1R (Homo sapiens, UniProt P43220); assay: In vitro receptor activation reporter assay (CRE-Luc), HEK293-GLP-1R-CRE; format: cell-based
# T2 construct: expressed in transfected cells
# T2 sequence (P43220 24-463): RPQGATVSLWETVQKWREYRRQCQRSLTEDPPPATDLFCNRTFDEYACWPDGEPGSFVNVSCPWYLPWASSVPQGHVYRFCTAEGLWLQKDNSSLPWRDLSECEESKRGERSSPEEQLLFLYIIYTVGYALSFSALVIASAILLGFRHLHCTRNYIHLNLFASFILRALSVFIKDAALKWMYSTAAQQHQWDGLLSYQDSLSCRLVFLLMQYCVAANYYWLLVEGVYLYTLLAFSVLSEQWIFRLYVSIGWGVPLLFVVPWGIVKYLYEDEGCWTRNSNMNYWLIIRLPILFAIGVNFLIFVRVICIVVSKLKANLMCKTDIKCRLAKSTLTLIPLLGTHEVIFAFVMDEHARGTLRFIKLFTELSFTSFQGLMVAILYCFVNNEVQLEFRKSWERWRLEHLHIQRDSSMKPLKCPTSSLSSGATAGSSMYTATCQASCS
# Method: as §1
# HEK293 cells were infected with lentivirus encoding firefly luciferase gene under the control of cAMP responsive element (CRE) promoter (Qiagen, The Netherlands) and then were selected using 1 g/mL puromycin (Life Technologies, Carlsbad) for 1 week. The surviving cells (referred to as CRE-HEK293) were expanded and then transfected with a G418 selective mammalian expression plasmid encoding human GLP-1R. In brief, GLP-1R plasmid was transfected into CRE-HEK293 cells using Lipofectamine 2000 and selected with 400 g/mL Geneticin (Life Technologies, Carlsbad, CA). Single colony stable cell line overexpressing CRE-luciferase and GLP1R was then established for in vitro activity assay.
smiles,measurement,setting,value
"CC[C@H](C)[C@H](NC(=O)[C@H](CC(C)C)NC(=O)[C@H](Cc1c[nH]c2ccccc12)NC(=O)[C@@H]1CSCC(=O)NCCN(C(=O)CCC(=O)NCCOCCOCCC(=O)NCCOCCOCCC(=O)NCCCC[C@H](NC(=O)CCCCCCCCCCCCCCCCCCC(=O)O)C(=O)O)CCNC(=O)CSC[C@H](NC(=O)[C@H](CCCCN)NC(=O)[C@H](CC(=O)O)NC(=O)[C@H](CC(C)C)NC(=O)[C@H](Cc2ccc(O)cc2)NC(=O)[C@@H](NC(=O)[C@H](CO)NC(=O)[C@H](Cc2ccc(O)cc2)NC(=O)[C@H](CC(=O)O)NC(=O)[C@H](CO)NC(=O)[C@@H](NC(=O)[C@H](Cc2ccccc2)NC(=O)[C@@H](NC(=O)CNC(=O)[C@H](CCC(=O)O)NC(=O)C(C)(C)NC(=O)[C@@H](N)Cc2ccc(O)cc2)[C@@H](C)O)[C@@H](C)O)[C@@H](C)CC)C(=O)N[C@@H](C)C(=O)N[C@@H](CCC(N)=O)C(=O)NC(C)(C)C(=O)N[C@@H](C)C(=O)N[C@@H](Cc2ccccc2)C(=O)N[C@@H](C(C)C)C(=O)N1)C(=O)N[C@@H](C)C(=O)N[C@@H](CCC(N)=O)C(=O)NCC(=O)N1CCC[C@H]1C(=O)N[C@@H](CO)C(=O)N[C@@H](CO)C(=O)NCC(=O)N[C@@H](C)C(=O)N1CCC[C@H]1C(=O)N1CCC[C@H]1C(=O)N1CCC[C@H]1C(=O)N[C@@H](CO)C(N)=O [19Q, 21A, 27I, 29Q, C(17-24) - C20L5A, YAibEGT-FTSDY-SIYLD-KXAQAib-AFVXW-LIAQG-PSSGA-PPPS-NH2 (where each X is C)]",EC50,human GIPR; Table 9,0.02 nM
"CC[C@H](C)[C@H](NC(=O)[C@H](CO)NC(=O)[C@H](Cc1ccc(O)cc1)NC(=O)[C@H](CC(=O)O)NC(=O)[C@H](CO)NC(=O)[C@@H](NC(=O)[C@H](Cc1ccccc1)NC(=O)[C@@H](NC(=O)CNC(=O)[C@H](CCC(=O)O)NC(=O)C(C)(C)NC(=O)[C@@H](N)Cc1ccc(O)cc1)[C@@H](C)O)[C@@H](C)O)C(=O)N[C@@H](Cc1ccc(O)cc1)C(=O)N[C@H]1CCCCNC(=O)CN(C(=O)CCNC(=O)CCOCCOCCNC(=O)CCOCCOCCNC(=O)CC[C@H](NC(=O)CCCCCCCCCCCCCCCCC(=O)O)C(=O)O)CC(=O)NCCCC[C@@H](C(=O)N[C@@H](Cc2ccccc2)C(=O)N[C@H](C(=O)N[C@@H](CC(N)=O)C(=O)N[C@@H](Cc2c[nH]c3ccccc23)C(=O)N[C@@H](CC(C)C)C(=O)N[C@@H](CC(C)C)C(=O)N[C@@H](C)C(=O)NCC(=O)NCC(=O)N2CCC[C@H]2C(=O)N[C@@H](CO)C(=O)N[C@@H](CO)C(=O)NCC(=O)N[C@@H](C)C(=O)N2CCC[C@H]2C(=O)N2CCC[C@H]2C(=O)N2CCC[C@H]2C(=O)N[C@@H](CO)C(N)=O)C(C)C)NC(=O)C(C)(C)NC(=O)[C@H](C)NC(=O)[C@H](C)NC(=O)[C@H](CCC(N)=O)NC(=O)[C@H](CCCCN)NC(=O)[C@H](CC(=O)O)NC1=O [mCLZ715, YAibEGT-FTSDY-SIYXD-KQAAAib-XFVNW-LLAGG-PSSGA-PPPS-NH2 (where each X is K)]",EC50,"human GLP-1R; Table 7, read-out: EC50 [nM] GLP1R",0.02 nM
"CC[C@H](C)[C@H](NC(=O)[C@H](CO)NC(=O)[C@H](Cc1ccc(O)cc1)NC(=O)[C@H](CC(=O)O)NC(=O)[C@H](CO)NC(=O)[C@@H](NC(=O)[C@H](Cc1ccccc1)NC(=O)[C@@H](NC(=O)CNC(=O)[C@H](CCC(=O)O)NC(=O)C(C)(C)NC(=O)[C@@H](N)Cc1ccc(O)cc1)[C@@H](C)O)[C@@H](C)O)C(=O)N[C@@H](Cc1ccc(O)cc1)C(=O)N[C@H]1CSCC(=O)NCCN(C(=O)CCC(=O)NCCOCCOCCC(=O)NCCOCCOCCC(=O)NCCCC[C@H](NC(=O)CCCCCCCCCCCCCCCCC(=O)O)C(=O)O)CCNC(=O)CSC[C@@H](C(=O)N[C@@H](Cc2ccccc2)C(=O)N[C@H](C(=O)N[C@@H](CC(N)=O)C(=O)N[C@@H](Cc2c[nH]c3ccccc23)C(=O)N[C@@H](CC(C)C)C(=O)N[C@@H](CC(C)C)C(=O)N[C@@H](C)C(=O)NCC(=O)NCC(=O)N2CCC[C@H]2C(=O)N[C@@H](CO)C(=O)N[C@@H](CO)C(=O)NCC(=O)N[C@@H](C)C(=O)N2CCC[C@H]2C(=O)N2CCC[C@H]2C(=O)N2CCC[C@H]2C(=O)N[C@@H](CO)C(N)=O)C(C)C)NC(=O)C(C)(C)NC(=O)[C@H](C)NC(=O)[C@H](C)NC(=O)[C@H](CCC(N)=O)NC(=O)[C@H](CCCCN)NC(=O)[C@H](CC(=O)O)NC1=O [C(14-21) - L5A, YAibEGT-FTSDY-SIYXD-KQAAAib-XFVNW-LLAGG-PSSGA-PPPS-NH2 (where each X is C)]",EC50,human GIPR; Table 8,0.03 nM
same,EC50,human GIPR; Table 9,0.03 nM
"CC[C@H](C)[C@H](NC(=O)[C@H](CC(C)C)NC(=O)[C@H](Cc1c[nH]c2ccccc12)NC(=O)[C@@H]1CSCC(=O)NCCN(C(=O)CCC(=O)NCCOCCOCCC(=O)NCCOCCOCCC(=O)NCCCC[C@H](NC(=O)CCCCCCCCCCCCCCCCCCC(=O)O)C(=O)O)CCNC(=O)CSC[C@H](NC(=O)[C@H](CCCCN)NC(=O)[C@H](CC(=O)O)NC(=O)[C@H](CC(C)C)NC(=O)[C@H](Cc2ccc(O)cc2)NC(=O)[C@@H](NC(=O)[C@H](CO)NC(=O)[C@H](Cc2ccc(O)cc2)NC(=O)[C@H](CC(=O)O)NC(=O)[C@H](CO)NC(=O)[C@@H](NC(=O)[C@H](Cc2ccc(O)cc2)NC(=O)[C@@H](NC(=O)CNC(=O)[C@H](CCC(=O)O)NC(=O)C(C)(C)NC(=O)[C@@H](N)Cc2ccc(O)cc2)[C@@H](C)O)[C@@H](C)O)[C@@H](C)CC)C(=O)N[C@@H](C)C(=O)N[C@@H](C)C(=O)NC(C)(C)C(=O)N[C@@H](CCC(=O)O)C(=O)N[C@@H](Cc2ccccc2)C(=O)N[C@@H](C(C)C)C(=O)N1)C(=O)N[C@@H](C)C(=O)NCC(=O)NCC(=O)N1CCC[C@H]1C(=O)N[C@@H](CO)C(=O)N[C@@H](CO)C(=O)NCC(=O)N[C@@H](C)C(=O)N1CCC[C@H]1C(=O)N1CCC[C@H]1C(=O)N1CCC[C@H]1C(=O)N[C@@H](CO)C(N)=O [6Y, 271, C(17-24) - C20L5A, YAibEGT-YTSDY-SIYLD-KXAAAib-EFVXW-LIAGG-PSSGA-PPPS-NH2 (where each X is C)] (H-Y[Aib]EGTYTSDYSIYLDKCAA[Aib]EFVCWLIAGGPSSGAPPPS-NH2; linker 17-24 via X2)",EC50,"human GLP-1R; unnumbered table (Table 10), average of runs, read-out: GLP1R (nM) [EC50] average",0.06 nM
same,EC50,"human GLP-1R; unnumbered table (Table 10), run 02/19, read-out: GLP1R (nM) [EC50] 02/19",0.05 nM
same,EC50,"human GLP-1R; unnumbered table (Table 10), run 3/25, read-out: GLP1R (nM) [EC50] 3/25",0.07 nM
same,EC50,"human GLP-1R; unnumbered table (Table 10), run 03/26, read-out: GLP1R (nM) [EC50] 03/26",0.06 nM
